Measured values from patent US8936941B2, “Compositions useful for cancer detection and treatment, a cancer stem cell model, and methods of production and use thereof” (priority 2008, dated 2015).

How the values were obtained:
Format in all cases: cell-based, human
let-7a miRNA = assay: pLet7a-Luc luciferase reporter gene assay in AsPC-1 cells
Excerpt: Luciferase Reporter Gene Assay: pLet7a-Luc reporter vector contains a let-7a miRNA specific binding site at the 3′ UTR of the firefly (Photinus pyralis) luciferase gene, pMiR-144-Luc reporter vector containing miR-144 miRNA specific binding site at the 3′UTR of the firefly luciferase gene and KRAS-Luc reporter vector containing specific binding sites for let-7 family members at the 3′UTR of the firefly luciferase gene were obtained from Signosis, Inc. (Sunnyvale, Calif.). Human pancreatic cancer cell lines were transfected with the pLet7a-Luc, pMiR-144-Luc and KRAS-Luc reporter vectors separately with Renilla luciferase expressing plasmid pRL-TK (Promega) along with DCAMKL-1, or scrambled siRNA-using siPORT™ NeoFX™ transfection reagent (Ambion, Inc.). Luciferase activity was determined as per the manufacturer's instructions (Dual Luciferase Reporter Assay System; Promega) using a BioTek Synergy HT (Winooski, Vt.) as described herein above. The activity, normalized to Renilla luciferase activity, is presented as relative luciferase units relative to control with ±SEM values. Assays were performed in triplicate wells, and experiments were repeated 3 times.

DCAMKL-1 [1] = assay: siRNA knockdown of DCAMKL-1 in BxPC3 pancreatic cancer cells, real-time RT-PCR
Protocol: (§1) Cell Culture: AsPC-1 and BxPC3 human pancreatic adenocarcinoma cell lines were obtained from the American Type Culture Collection and grown in Dulbecco's modified Eagle medium (DMEM) supplemented with 10% fetal bovine serum and 100 U/mL penicillin-streptomycin in a humidified chamber at 37° C. with 5% CO2.
Silencer RNA: DCAMKL-1 small interfering RNA (siRNA) (si-DCAMKL-1) sequence targeting the coding region of DCAMKL-1 (accession No. NM_004734; SEQ ID NO:1) ([…]tt (SEQ ID NO:3)) and scrambled siRNAs (si-Scr) not matching any of the human genes were obtained (Ambion Inc, Austin, Tex.) and transfected using siPORT™ NeoFX™ (Ambion, Inc).
Real-time Reverse Transcription-Polymerase Chain Reaction Analyses: Total RNA isolated from human pancreatic cancer cells or cells sorted from normal mouse pancreas were subjected to reverse transcription with Superscript II RNase H-Reverse Transcriptase and random hexanucleotide primers (Invitrogen, Carlsbad, Calif.). […] The changes in mRNA were expressed as fold change relative to control with ±SEM value.
miRNA Analysis: total RNA isolated from human pancreatic cancer cell lines or cells sorted from normal mouse pancreas was subjected to reverse transcription with Superscript II RNase H-Reverse Transcriptase and random hexanucleotide primers (Invitrogen). […] The changes in pri-miRNA were expressed as fold change relative to control with ±SEM values.

DCAMKL-1 [2] = assay: siRNA knockdown of DCAMKL-1 in HCT116 cells, real-time RT-PCR and Western blot
Protocol: as §1, with “culture. HCT116, HCT116 p21^−/−” for “Culture: AsPC-1”, “SW480” for “BxPC3”, “colon” for “pancreatic”, “Collection (ATCC)” for “Collection”, “eagle's” for “Eagle”
Silencer RNA. DCAMKL-1 siRNA (si-DCAMKL-1) sequence targeting the coding region of DCAMKL-1 (Accession # NM_004734 (SEQ ID NO:1)) ([…] (SEQ ID NO:3)) and scrambled control siRNAs (si-Scr) not matching any of the human genes were obtained (Ambion Inc., Austin, Tex.) and transfected using Transfectol™ (Ambion Inc.).
Real-time reverse transcription-PCR analyses. Total RNA isolated either from cells or from human colon cancer cell tumor xenograft samples was subjected to reverse transcription with Superscript™ II RNase H—Reverse Transcriptase and random hexanucleotide primers (Invitrogen, Carlsbad, Calif.). The cDNA was subsequently used to perform Real-time PCR by SYBR chemistry (SYBR® Green I; Molecular Probes) for specific transcripts using gene specific primers and Jumpstart Taq DNA polymerase (Sigma-Aldrich, St. Louis, Mo.). […] The changes in mRNA were expressed as fold change relative to control with ±SEM value.
miRNA analysis. Total miRNA was isolated using mirVana™ miRNA isolation kit (Ambion Inc.). Total miRNA isolated either from cells or from human colon cancer cell tumor xenograft samples were subjected to reverse transcription with Superscript™ II RNase H—Reverse Transcriptase and random hexanucleotide primers (Invitrogen, Carlsbad, Calif.). The cDNA was subsequently used to perform Real-time PCR by SYBR chemistry (SYBR® Green I; Molecular Probes) for pri-let-7a transcript using specific primers and Jumpstart Taq DNA polymerase (Sigma-Aldrich, St. Louis, Mo.). […] The changes in pri-miRNA were expressed as fold change relative to control with ±SEM value. Primers used are: […]
Western Blot analysis. HCT116 and SW480 cells were cultured in a 6 well plates to 40% confluency and were transfected with si-DCAMKL-1 or si-Scr for 72 h. Cells or the tumor xenograft samples were lysed and the concentration of protein was determined by BCA protein assay kit (Pierce Biotechnology Inc., Rockford, Ill.). Forty μg of the protein was size separated in a 7.5-15% SDS polyacrylamide gel and transferred onto a nitrocellulose membrane with a semidry transfer apparatus (Amersham-Pharmacia, Piscataway, N.J.). The membrane was blocked in 5% non-fat dry milk for 1 h and probed overnight with a rabbit anti-DCAMKL-1 antibody (Abcam Inc., Cambridge, Mass.) or with rabbit anti-c-Myc antibody (Santa Cruz). Subsequently, the membrane was incubated with anti-rabbit or anti-goat IgG horseradish peroxidase-conjugated antibodies (Amersham-Pharmacia) for 1 h at room temperature. The 82 kDa DCAMKL-1 and 49 kDa c-Myc proteins were detected using ECL™ Western Blotting detection reagents (Amersham-Pharmacia). Actin (43 kDa), used as loading control was identified using a goat polyclonal IgG (Santa Cruz Biotechnology Inc., Santa Cruz, Calif.).

Chain of DCAMKL-1 (O15075 other isoform, or with tags, fused parts or gaps): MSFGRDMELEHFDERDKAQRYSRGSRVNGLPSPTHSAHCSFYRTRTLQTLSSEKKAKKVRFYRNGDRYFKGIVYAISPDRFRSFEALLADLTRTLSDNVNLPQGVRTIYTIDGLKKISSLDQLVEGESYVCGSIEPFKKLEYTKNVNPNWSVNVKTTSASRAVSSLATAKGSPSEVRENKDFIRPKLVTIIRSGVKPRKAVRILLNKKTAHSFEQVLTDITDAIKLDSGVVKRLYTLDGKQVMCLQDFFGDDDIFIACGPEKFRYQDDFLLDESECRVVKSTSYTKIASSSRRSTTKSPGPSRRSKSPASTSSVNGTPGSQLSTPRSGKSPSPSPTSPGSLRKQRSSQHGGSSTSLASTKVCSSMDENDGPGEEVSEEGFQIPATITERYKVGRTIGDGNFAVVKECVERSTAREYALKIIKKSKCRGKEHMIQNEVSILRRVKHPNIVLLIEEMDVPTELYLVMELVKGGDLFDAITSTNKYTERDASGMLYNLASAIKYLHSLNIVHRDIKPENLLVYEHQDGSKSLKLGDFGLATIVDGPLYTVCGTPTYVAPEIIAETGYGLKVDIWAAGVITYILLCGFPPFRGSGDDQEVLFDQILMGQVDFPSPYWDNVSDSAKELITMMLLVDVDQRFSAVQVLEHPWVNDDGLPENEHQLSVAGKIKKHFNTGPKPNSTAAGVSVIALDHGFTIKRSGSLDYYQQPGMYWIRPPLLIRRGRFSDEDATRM

“si-DCAMKL-1: siRNA targeting the coding region of DCAMKL-1 (NM_004734), sequence GGGAGUGAGAACAAUCUAC (SEQ ID NO:3) (chemistry not given here; listed as Homo sapiens)” was tested, and the “luciferase activity (let-7a binding site in 3' UTR)” value (let-7a miRNA) was “dose-dependent reduction”, the “increase in pri-let-7a miRNA” value (DCAMKL-1 [1]; compared to control and siSCR) was 3 fold and the “Notch1 mRNA” value (DCAMKL-1 [1]; compared to siSCR or control) was “significant decrease”. For the same substance, the “c-Myc mRNA and protein” value (DCAMKL-1 [2]) was “Reduction”, the “reduction in Notch-1 mRNA” value (DCAMKL-1 [2]) was 40% and the “Notch-1 and cleaved Notch-1 protein” value (DCAMKL-1 [2]; Western blot) was “dose dependent reduction”. The DCAMKL-1 protein (DCAMKL-1 [2]; Western blot, 72 h transfection) was “reduction”, the “reduction in DCAMKL-1 mRNA expression” value (DCAMKL-1 [2]; real-time RT-PCR) was > 70% and the “increase in pri-let-7a miRNA” value (DCAMKL-1 [2]; real-time RT-PCR, compared to controls) was 4 fold.
